# Reference: ChEMBL document CHEMBL1201862, “PubChem BioAssay data set” (2004)
#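 Test compounds were applied to cells in 96-well plates for 48 hours at 5 doses. GI50 = concentration required for 50% inhibition of growth.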 Calls of active or inactive are those of the source. No stated cut-off is given here; in the data, active = GI50 up to about 1.1 µM and inactive = higher.
# Legend:
# Assay in all cases: inhibition of tumour cell growth, NCI panel, 48 h
# [1] = system: LOX IMVI
# [2] = system: M14
# [3] = system: KM-20L2
# [4] = system: HCC 2998
# [5] = system: SNB-19
# [6] = system: MOLT-4
# [7] = system: OVCAR-3
# [8] = system: ACHN
# [9] = system: M19-MEL
# [10] = system: K562
# [11] = system: U-251
# [12] = system: SK-OV-3
# [13] = system: A498
# [14] = system: SF-539
# [15] = system: UACC-62
# [16] = system: UO-31
# [17] = system: KM12
# [18] = system: CCRF-CEM
# [19] = system: IGROV-1
# [20] = system: NCI-H460
# [21] = system: SF-295
# [22] = system: DMS-114
# [23] = system: HOP-62
# [24] = system: HCT-116
# [25] = system: CAKI-1
# [26] = system: 786-0
# [27] = system: SN12C
# [28] = system: HOP-92
# [29] = system: HOP-18
# [30] = system: NCI-H522
# [31] = system: SK-MEL-28
# [32] = system: NCI-H23
# [33] = system: UACC-257
# [34] = system: HT-29
# [35] = system: OVCAR-8
# [36] = system: EKVX
# [37] = system: LXFL 529
# [38] = system: A549
# [39] = system: OVCAR-4
# [40] = system: TK-10
# [41] = system: SK-MEL-5
# [42] = system: SNB-78
# [43] = system: Malme-3M
# [44] = system: XF498
# [45] = system: SNB-75
# [46] = system: RXF 393
# [47] = system: SW-620
# [48] = system: COLO 205
# [49] = system: NCI-H226
# [50] = system: HL-60
# [51] = system: SF-268
# [52] = system: DLD-1
# [53] = system: SR
# [54] = system: OVCAR-5
# [55] = system: HCT-15
# [56] = system: DMS-273
# [57] = system: RPMI-8226
# [58] = system: SK-MEL-2
smiles,measurement,setting,value
CC(Oc1ccc2c(-c3ccccc3)cc(=O)oc2c1)C(=O)O (centres undefined),GI50,[1],> 100 µM (inactive)
same,GI50,[2],> 100 µM (inactive)
same,GI50,[3],> 100 µM (inactive)
same,GI50,[4],> 100 µM (inactive)
same,GI50,[5],> 100 µM (inactive)
same,GI50,[6],> 100 µM (inactive)
same,GI50,[7],> 100 µM (inactive)
same,GI50,[8],> 100 µM (inactive)
same,GI50,[9],> 100 µM (inactive)
same,GI50,[10],> 100 µM (inactive)
same,GI50,[11],> 100 µM (inactive)
same,GI50,[12],> 100 µM (inactive)
same,GI50,[13],> 100 µM (inactive)
same,GI50,[14],> 100 µM (inactive)
same,GI50,[15],> 100 µM (inactive)
same,GI50,[16],> 100 µM (inactive)
same,GI50,[17],> 100 µM (inactive)
same,GI50,[18],> 100 µM (inactive)
same,GI50,[19],> 100 µM (inactive)
same,GI50,[20],> 100 µM (inactive)
same,GI50,[21],> 100 µM (inactive)
same,GI50,[22],> 100 µM (inactive)
same,GI50,[23],> 100 µM (inactive)
same,GI50,[24],> 100 µM (inactive)
same,GI50,[25],> 100 µM (inactive)
same,GI50,[26],> 100 µM (inactive)
same,GI50,[27],> 100 µM (inactive)
same,GI50,[28],> 100 µM (inactive)
same,GI50,[29],> 100 µM (inactive)
same,GI50,[30],> 100 µM (inactive)
same,GI50,[31],> 100 µM (inactive)
same,GI50,[32],> 100 µM (inactive)
same,GI50,[33],> 100 µM (inactive)
same,GI50,[34],> 100 µM (inactive)
same,GI50,[35],> 100 µM (inactive)
same,GI50,[36],> 100 µM (inactive)
same,GI50,[37],> 100 µM (inactive)
same,GI50,[38],> 100 µM (inactive)
same,GI50,[39],> 100 µM (inactive)
same,GI50,[40],> 100 µM (inactive)
same,GI50,[41],> 100 µM (inactive)
same,GI50,[42],> 100 µM (inactive)
same,GI50,[43],> 100 µM (inactive)
same,GI50,[44],> 100 µM (inactive)
same,GI50,[45],> 100 µM (inactive)
same,GI50,[46],> 100 µM (inactive)
same,GI50,[47],> 100 µM (inactive)
same,GI50,[48],> 100 µM (inactive)
same,GI50,[49],> 100 µM (inactive)
same,GI50,[50],> 100 µM (inactive)
same,GI50,[51],> 100 µM (inactive)
same,GI50,[52],> 100 µM (inactive)
same,GI50,[53],> 100 µM (inactive)
Cc1cc([N+](=O)[O-])c(C)c2c1[nH]c1ccc(Cl)cc12,GI50,[1],> 100 µM (inactive)
same,GI50,[2],> 100 µM (inactive)
same,GI50,[54],> 100 µM (inactive)
same,GI50,[4],> 100 µM (inactive)
same,GI50,[5],> 100 µM (inactive)
same,GI50,[6],23.6 µM (inactive)
same,GI50,[7],38.9 µM (inactive)
same,GI50,[8],> 100 µM (inactive)
same,GI50,[9],> 100 µM (inactive)
same,GI50,[10],26.4 µM (inactive)
same,GI50,[55],96.2 µM
same,GI50,[14],> 100 µM (inactive)
same,GI50,[16],> 100 µM (inactive)
same,GI50,[17],> 100 µM (inactive)
same,GI50,[18],23.2 µM (inactive)
same,GI50,[56],63.1 µM (inactive)
same,GI50,[20],> 100 µM (inactive)
same,GI50,[21],> 100 µM (inactive)
same,GI50,[22],> 100 µM (inactive)
same,GI50,[23],> 100 µM (inactive)
same,GI50,[24],> 100 µM (inactive)
same,GI50,[25],> 100 µM (inactive)
same,GI50,[57],50 µM (inactive)
same,GI50,[26],> 100 µM (inactive)
same,GI50,[27],> 100 µM (inactive)
same,GI50,[29],> 100 µM (inactive)
same,GI50,[30],18.8 µM (inactive)
same,GI50,[31],> 100 µM (inactive)
same,GI50,[32],> 100 µM (inactive)
same,GI50,[33],> 100 µM (inactive)
same,GI50,[34],89.5 µM (inactive)
same,GI50,[35],> 100 µM (inactive)
same,GI50,[36],> 100 µM (inactive)
same,GI50,[58],> 100 µM (inactive)
same,GI50,[38],> 100 µM (inactive)
same,GI50,[39],> 100 µM (inactive)
same,GI50,[40],84.7 µM (inactive)
same,GI50,[41],> 100 µM (inactive)
same,GI50,[42],> 100 µM (inactive)
same,GI50,[43],> 100 µM (inactive)
same,GI50,[44],> 100 µM (inactive)
same,GI50,[45],> 100 µM (inactive)
same,GI50,[47],71.9 µM (inactive)
same,GI50,[48],71 µM (inactive)
same,GI50,[49],> 100 µM (inactive)
same,GI50,[50],58.7 µM (inactive)
same,GI50,[51],> 100 µM (inactive)
same,GI50,[52],> 10 µM (inactive)
same,GI50,[53],45.7 µM (inactive)
COc1ccc(-c2onc(-c3ccc([N+](=O)[O-])cc3)c2C2=NCCCN2)cc1,GI50,[1],51.9 µM (inactive)
same,GI50,[2],38.8 µM (inactive)
same,GI50,[3],44.3 µM (inactive)
same,GI50,[54],> 100 µM (inactive)
same,GI50,[4],> 100 µM (inactive)
same,GI50,[5],> 100 µM (inactive)
same,GI50,[6],76.2 µM (inactive)
same,GI50,[7],26.5 µM (inactive)
same,GI50,[8],> 100 µM (inactive)
same,GI50,[9],> 100 µM (inactive)
same,GI50,[10],70.3 µM (inactive)
same,GI50,[11],> 100 µM (inactive)
same,GI50,[55],> 100 µM
same,GI50,[14],> 100 µM (inactive)
same,GI50,[15],> 100 µM (inactive)
same,GI50,[16],18.4 µM (inactive)
same,GI50,[17],> 100 µM (inactive)
same,GI50,[18],> 100 µM (inactive)
same,GI50,[19],> 100 µM (inactive)
same,GI50,[20],51.8 µM (inactive)
same,GI50,[21],53.2 µM (inactive)
same,GI50,[23],> 100 µM (inactive)
same,GI50,[24],38.9 µM (inactive)
same,GI50,[25],> 100 µM (inactive)
same,GI50,[57],> 100 µM (inactive)
same,GI50,[26],> 100 µM (inactive)
same,GI50,[27],> 100 µM (inactive)
same,GI50,[29],3.4 µM (inactive)
same,GI50,[30],51.3 µM (inactive)
same,GI50,[31],38.4 µM (inactive)
same,GI50,[32],> 100 µM (inactive)
same,GI50,[33],87.7 µM (inactive)
same,GI50,[34],40.3 µM (inactive)
same,GI50,[35],81.1 µM (inactive)
same,GI50,[36],> 100 µM (inactive)
same,GI50,[58],> 100 µM (inactive)
same,GI50,[37],> 100 µM (inactive)
same,GI50,[38],> 100 µM (inactive)
same,GI50,[39],> 100 µM (inactive)
same,GI50,[41],30.2 µM (inactive)
same,GI50,[42],> 100 µM (inactive)
same,GI50,[43],> 100 µM (inactive)
same,GI50,[44],> 100 µM (inactive)
same,GI50,[45],> 100 µM (inactive)
same,GI50,[46],88.1 µM (inactive)
same,GI50,[47],> 100 µM (inactive)
same,GI50,[48],43.6 µM (inactive)
same,GI50,[49],38.8 µM (inactive)
same,GI50,[50],36.9 µM (inactive)
same,GI50,[51],> 100 µM (inactive)
same,GI50,[52],> 100 µM (inactive)
same,GI50,[53],45.4 µM (inactive)
